Data reported in patent US11203592B2, “Inhibitors of indoleamine 2,3-dioxygenase and methods of their use” (BRISTOL-MYERS SQUIBB COMPANY, priority 2017, dated 2021).

Assays:
[1] = biological target: T1, indoleamine 2,3-dioxygenase (IDO) (Homo sapiens, UniProt P14902); experiment: HeLa cell-based indoleamine 2,3-dioxygenase (IDO) assay, kynurenine production; details: HeLa cells, IFNγ 25 ng/mL, 48 hour incubation, kynurenine absorbance at 480 nm
T1 construct: endogenous in cells; host or cells: HeLa (ATCC CCL-2), induced with IFNγ at 25 ng/mL
Protocol: Assessment of Inhibitor Activity in HeLa Cell-Based Indoleamine 2,3-dioxygenase (IDO) Assay:
HeLa (ATCC® CCL-2) cells were obtained from the ATCC® and cultured in Dulbecco's Modified Eagle Medium supplemented with 4.5 g/L glucose, […] (#10-013-CV, Corning), 2 mM L-alanyl-L-glutamine dipeptide (#35050-061, Gibco), 100U/mL penicillin, 100 μg/mL streptomycin (#SV30010, HyClone) and 10% fetal bovine serum (#SH30071.03 HyClone). Cells were maintained in a humidified incubator at 37° C. in 5% CO2.
IDO activity was assessed as a function of kynurenine production as follows: HeLa cells were seeded in a 96-well culture plate at a density of 5,000 cells/well and allowed to equilibrate overnight. After 24 hours, the media was aspirated and replaced with media containing IFNγ (#285-IF/CF, R&D Systems) at a final concentration of 25 ng/mL. A serial dilution of each test compound was added to the cells in a total volume of 200 μL of culture medium. After a further 48 hour incubation, 170 μL of supernatant was transferred from each well to a fresh 96-well plate. 12.1 μL of 6.1N trichloroacetic acid (#T0699, Sigma-Aldrich) was added to each well and mixed, followed by incubation at 65° C. for 20 minutes to hydrolyze N-formylkynurenine, the product of indoleamine 2,3-dioxygenase, to kynurenine. The reaction mixture was then centrifuged for 10 mins at 500×g to sediment the precipitate. 100 μL of the supernatant was transferred from each well to a fresh 96-well plate. 100 μl of 2% (w/v) p-dimethylaminobenzaldehyde (#15647-7, Sigma-Aldrich) in acetic acid (#A6283, Sigma-Aldrich) was added to each well mixed and incubated at room temperature for 20 inns. Kynurenine concentrations were determined by measuring absorbance at 480 nm and calibrating against an L-kynurenine (#K8625, Sigma-Aldrich) standard curve using a SPECTRAMAX® M2e microplate reader (Molecular Devices). The percentage activity at each inhibitor concentration was determined and IC50 values assessed using nonlinear regression.

human IDO1 = biological target: T2, human IDO1 (Homo sapiens, UniProt P14902); experiment: human IDO1/HEK293 cell IDO inhibition assay; assay type: cell-based; details: HEK293 cells stably expressing human IDO1, 20 hours incubation, absorbance at 490 nm; read-out: IDO1 HEK Human IC50
T2 construct: expressed in transfected cells
Protocol: HEK293 cells were transfected with a pCDNA-based mammalian expression vector harboring human IDO1 cDNA (NM 002164.2) by electroporation. They were cultured in medium (DMEM with 10% FBS) containing 1 mg/ml G418 for two weeks. Clones of HEK293 cells that stably expressed human IDO1 protein were selected and expanded for IDO inhibition assay.
The human IDO1/HEK293 cells were seeded at 10,000 cells per 50 μL per well with RPMI/phenol red free media contains 10% FBS in a 384-well black wall clear bottom tissue culture plate (Matrix Technologies LLC) 100 nL of certain concentration of compound was then added to each well using ECHO liquid handling systems. The cells were incubated for 20 hours in 37° C. incubator with 5% CO2.
The compound treatments were stopped by adding trichloroacetic acid (Sigma-Aldrich) to a final concentration at 0.2%. The cell plate was further incubated at 50° C. for 30 minute. The equal volume supernatant (20 μL) and 0.2% (w/v) Ehrlich reagent (4-dimethylaminobenzaldehyde, Sigma-Aldrich) in glacial acetic acid were mixed in a new clear bottom 384-well plate. This plate was then incubated at room temperature for 30 minute. The absorbance at 490 nm was measured on Envision plate reader.
Compound IC50 values were calculated using the counts of 500 nM of a reference standard treatment as one hundred percent inhibition, and counts of no compound but DMSO treatment as zero percent inhibition.

T1 sequence (P14902 whole entry): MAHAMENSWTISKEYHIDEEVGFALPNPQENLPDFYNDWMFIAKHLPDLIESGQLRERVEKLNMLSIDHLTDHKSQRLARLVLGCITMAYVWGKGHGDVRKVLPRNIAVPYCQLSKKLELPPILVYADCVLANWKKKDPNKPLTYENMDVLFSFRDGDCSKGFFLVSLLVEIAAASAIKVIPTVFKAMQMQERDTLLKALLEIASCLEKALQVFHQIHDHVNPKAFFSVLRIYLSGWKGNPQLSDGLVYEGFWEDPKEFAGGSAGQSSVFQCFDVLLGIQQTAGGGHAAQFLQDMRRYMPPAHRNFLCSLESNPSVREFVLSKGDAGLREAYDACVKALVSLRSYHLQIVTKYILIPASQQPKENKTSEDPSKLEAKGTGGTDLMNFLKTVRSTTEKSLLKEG
T2 sequence (P14902 whole entry): as above

Compound | IC50 [1] | IC50 (human IDO1)
CC(C(=O)NC12CC3CC(CC(C3)C1)C2)[C@H]1CC[C@]2(CC1)OCc1ccccc12 (mixture of isomers) [Example 6, rac-N-((1R,3S)-Adamantan-1-yl)-2-((1S,4s)-3′H-spiro[cyclohexane-1,1′-isobenzofuran]-4-yl)propanamide] | 1300 nM | –
CC(NC(=O)C12CC3CC(CC(C3)C1)C2)[C@H]1CC[C@]2(CC1)OCc1ccccc12 (mixture of isomers) [Example 12, rac-(1R,3S)—N-(1-((1S,4s)-3′H-spiro[cyclohexane-1,1′-isobenzofuran]-4-yl)ethyl)adamantane-1-carboxamide] | 1440 nM | –
CC(NC(=O)C12CCC(Cl)(CC1)CC2)[C@H]1CC[C@]2(CC1)OCc1ccccc12 (mixture of isomers) [Example 13, rac-N-(1-((1s,4s)-3′H-Spiro[cyclohexane-1,1′-isobenzofuran]-4-yl)ethyl)-4-chlorobicyclo[2.2.2]octane-1-carboxamide] | 628 nM | –
CC(C(=O)NC12CC3CC(CC(C3)C1)C2)[C@H]1CC[C@@]2(CC1)OCc1ccccc12 (mixture of isomers) [Example 28, rac-N—((1R,3S)-Adamantan-1-yl)-2-((1R,4r)-3′H-spiro[cyclohexane-1,1′-isobenzofuran]-4-yl)propanamide] | 201 nM | –
O=C(C[C@H]1CC[C@@]2(CC1)OCc1ccccc12)Nc1ccc(Cl)cc1 [Example 1, N-(4-Chlorophenyl)-2-((1r,4r)-3′H-spiro[cyclohexane-1,1′-isobenzofuran]-4-yl)acetamide] | 114 nM | 100 nM
O=C(C[C@H]1CC[C@@]2(CC1)OCc1ccccc12)NC12CC3CC(CC(C3)C1)C2 [Example 2, N-((1R,3S)-Adamantan-1-yl)-2-((1R,4r)-3′H-spiro[cyclohexane-1,1′-isobenzofuran]-4-yl)acetamide] | 189 nM | –
O=C(C[C@H]1CC[C@]2(CC1)OCc1ccccc12)Nc1ccc(Cl)cc1 [Example 3, N-(4-Chlorophenyl)-2-((1s,4s)-3′H-spiro[cyclohexane-1,1′-isobenzofuran]-4-yl)acetamide] | 219 nM | 511 nM

Molecules with a lower IC50 [1], results first:

IC50 [1] | IC50 (human IDO1) | Compound
92 nM | – | CC(C(=O)Nc1ccc(Cl)cc1)[C@H]1CC[C@]2(CC1)OCc1ccccc12 (mixture of isomers) [Example 5, N-(4-Chlorophenyl)-2-((1s,4s)-3′H-spiro[cyclohexane-1,1′-isobenzofuran]-4-yl)propanamide]
50 nM | – | CC(C(=O)Nc1ccc(Cl)cc1)[C@H]1CC[C@@]2(CC1)OCc1ccccc12 (mixture of isomers) [Example 4, rac-N-(4-Chlorophenyl)-2-((1r,4r)-3′H-spiro[cyclohexane-1,1′-isobenzofuran]-4-yl)propanamide]
45 nM | – | CC(NC(=O)c1ccc(Cl)cc1)[C@H]1CC[C@]2(CC1)OCc1ccccc12 (mixture of isomers) [Example 11, rac-N-(1-((1s,4s)-3′H-spiro[cyclohexane-1,1′-isobenzofuran]-4-yl)ethyl)-4-chlorobenzamide]
20 nM | 17 nM | C[C@H](C(=O)Nc1ccc(Cl)cc1)[C@H]1CC[C@@]2(CC1)COc1ccccc12 [Example 15, (S)—N-(4-Chlorophenyl)-2-((1'S,4′r)-2H-spiro[benzofuran-3,1′-cyclohexan]-4′-yl)propanamide]
